Type in all cases: cell-based
Assay [1] has as its target T1, Human LBAT (Homo sapiens, UniProt Q14973).
T1 construct: expressed in transfected cells; kept under Geneticin selection
T1 sequence (Q14973 1-349): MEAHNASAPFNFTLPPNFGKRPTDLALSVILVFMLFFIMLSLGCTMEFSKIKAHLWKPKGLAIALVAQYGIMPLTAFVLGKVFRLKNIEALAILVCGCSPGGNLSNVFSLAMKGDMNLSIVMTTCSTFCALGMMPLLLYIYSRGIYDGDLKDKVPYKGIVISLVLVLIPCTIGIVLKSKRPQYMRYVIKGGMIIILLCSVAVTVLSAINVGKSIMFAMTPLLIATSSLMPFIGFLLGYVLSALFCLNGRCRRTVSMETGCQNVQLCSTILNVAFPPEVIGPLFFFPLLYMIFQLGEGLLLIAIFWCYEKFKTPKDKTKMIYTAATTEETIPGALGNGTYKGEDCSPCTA
Kind of assay: LBAT (h/m) assay: 3H-taurocholic acid uptake in human LBAT-overexpressing cells. As to conditions: 0.3 μM 3H-taurocholic acid and 7.5 μM cold taurocholic acid, 20 minutes, read-out: hLBAT IC50. The procedure:
LBAT (h/m) Assay Protocol
20,000 cells (Human or Mouse LBAT-overexpressing cells) were seeded in 96-wells plate (Corning CLS3809) in 100 μL MEM-alpha medium (Gibco 12571-063) supplemented with 10% FBS (Gibco 10438026) containing Geneticin (Gibco 10131-027) (1 mg/mL) and incubated at 37° C. in 5% CO2 for 24 hours. After incubation, media was decanted from the wells and cells were washed two times with 300 μL of basal MEM-alpha medium (FBS-free). After decanting basal MEM-alpha medium each time, plates were tapped against paper towel to ensure maximum removal of residual media. For human LBAT, incubation mix was prepared by adding test inhibitor dilutions (3-fold serial dilution in DMSO (Sigma D2650), 10 points) in MEM-alpha (without FBS) containing 0.3 μM 3H-taurocholic acid (ARC ART-1368) and 7.5 μM cold taurocholic acid (Sigma T4009) (maintaining 0.2% final DMSO concentration). For mouse LBAT, incubation mix was prepared by adding test inhibitor dilutions (3-fold serial dilution in DMSO, 10 points) in MEM-alpha (without FBS) containing 0.3 μM 3H-taurocholic acid and 25 μM cold taurocholic acid maintaining 0.2% final DMSO concentration).
50 μL of incubation mix containing test inhibitors was then added to the wells (in duplicate) and the plates were incubated for 20 minutes in a CO2 incubator at 37° C. After incubation, the reaction was stopped by keeping the plates on ice water mix for 2-3 minutes and then the incubation mix was aspirated completely from the wells. The wells were washed two times with 250 μL of chilled unlabelled 1 mM taurocholic acid dissolved in HEPES (Gibco 15630080)-buffered (10 mM) HBSS (Gibco 14175079) (pH 7.4). The plates were tapped against a paper towel after every wash to ensure maximum removal of blocking buffer.
(§1) 100 μL of MicroScint-20 (PerkinElmer 6013621) was added to the wells and kept overnight at room temperature before reading the plates in TopCount NXT™ Microplate Scintillation and Luminescence Counter from PerkinElmer under 3H Test protocol (set at 120 seconds reading time per well, with normal plate orientation).
(§2) Preparation of Test Compound Dilutions
(§3) All test compounds were provided in powder form at room temperature. 10 mM DMSO stocks of the test compounds were prepared, aliquoted and stored at −20° C. From the 10 mM DMSO stock of the compounds, a 3-fold serial dilution in DMSO was prepared to get a total of 10 dilutions of the test compounds. 0.5 μL of this dilution in DMSO was added to 250 μL of FBS-free basal media containing 3H-taurocholic acid and cold taurocholic acid to prepare the incubation mixture.

Assay [2] has as its system HepaRG cells. Put plainly: HepaRG-based assay: 3H-taurocholic acid uptake in differentiated HepaRG cells. Conditions: Homo sapiens, HepaRG, 0.3 μM 3H-taurocholic acid and 7.5 μM cold taurocholic acid, 30 minutes. On the procedure: HepaRG-Based Assay Protocol
A cryopreserved vial of differentiated HepaRG cells (Biopredic International HPR116080) was thawed in HepaRG Thawing/Plating/General Purpose Medium (Biopredic International ADD670C) supplemented with 200 mM Glutamax (Gibco 35050061) following the protocol provided by Biopredic International. 70,000 cells per well were seeded in 96-wells plate (Corning CLS3809) in 100 μL of HepaRG Thawing/Plating/General Purpose Medium supplemented with 200 mM Glutamax and incubated at 37° C. in 5% CO2 for 24 hours. Post incubation, the seeding media was replaced by HepaRG Maintenance/Metabolism Medium (Biopredic International ADD620C) and incubated for 6 days, with fresh HepaRG Maintenance/Metabolism Medium replenishment every 48 hours. After 7 days incubation post seeding, incubation media was decanted from the wells and cells were washed two times with 250 μL of William's E Basal Media (Gibco 12551032). After decanting William's E Basal Media each time, plates were tapped against paper towel to ensure maximum removal of residual media.
Incubation mix was prepared by adding test inhibitor dilutions (3-fold serial dilution in DMSO (Sigma D2650)) in William's E media (basal) containing 0.3 μM 3H-taurocholic acid (ARC ART-1368) and 7.5 μM cold taurocholic acid (Sigma T4009) (maintaining 0.2% final DMSO concentration). 50 μl of incubation mix containing test inhibitors was then added to the wells (in duplicate) and the plates were incubated for 30 minutes in 5% CO2 incubator at 37° C. After incubation, the reaction was stopped by keeping the plates on ice water mix for 2-3 minutes and then the incubation mix was aspirated completely from the wells. The wells were washed two times with 250 μL of chilled unlabelled 1 mM taurocholic acid dissolved in HEPES (Gibco 15630080)-buffered (10 mM) HBSS (Gibco 14175079) (pH 7.4). The plates were tapped against a paper towel after every wash to ensure maximum removal of blocking buffer.
as §1, §2, §3

For assay [3], the target named is T2, Human ASBT (Homo sapiens, UniProt Q12908).
T2 construct: expressed in transfected cells; kept under Puromycin selection
T2 sequence (Q12908 1-348): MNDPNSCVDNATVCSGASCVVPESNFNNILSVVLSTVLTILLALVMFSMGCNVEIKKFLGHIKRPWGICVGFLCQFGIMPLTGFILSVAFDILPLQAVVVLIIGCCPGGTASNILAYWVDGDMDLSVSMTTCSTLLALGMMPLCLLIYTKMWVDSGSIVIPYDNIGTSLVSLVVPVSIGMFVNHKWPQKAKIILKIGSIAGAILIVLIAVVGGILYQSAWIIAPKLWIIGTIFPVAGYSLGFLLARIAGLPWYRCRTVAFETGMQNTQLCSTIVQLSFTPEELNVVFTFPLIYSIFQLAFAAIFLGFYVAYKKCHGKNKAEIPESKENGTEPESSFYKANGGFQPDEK
Kind of assay: ASBT (h/m) assay: 3H-taurocholic acid uptake in human ASBT-overexpressing cells. As to conditions: 0.25 μM 3H-taurocholic acid and 5 μM cold taurocholic acid, 20 minutes, read-out: hASBT IC50. The procedure: ASBT (h/m) Assay Protocol
10,000 cells (Human or Mouse ASBT-overexpressing cells) were seeded in 96-wells plate (Corning CLS3809) in 200 μL MEM-alpha medium (Gibco 12571-063) supplemented with 10% FBS (Gibco 10438026) containing Puromycin (Gibco A1113803) (10 μg/mL) and incubated at 37° C. in 5% CO2 for 48 hours. After incubation, media was decanted from the wells and cells were washed two times with 300 μL of basal MEM-alpha medium (FBS-free). After decanting basal MEM-alpha medium each time, plates were tapped against paper towel to ensure maximum removal of residual media. Test inhibitor dilutions (highest test concentration being 10 μM, 3-fold serial dilution, 10 points) prepared in DMSO (Sigma D2650) were added in incubation mix (maintaining 0.2% final DMSO concentration) containing 0.25 μM 3H-taurocholic acid (ARC ART-1368) and 5 μM of cold taurocholic acid (Sigma T4009). 50 μL of incubation mix containing test inhibitors was then added to the wells (in duplicate) and the plates were incubated for 20 minutes in a CO2 incubator at 37° C. After incubation, the reaction was stopped by keeping the plates on ice water mix for 2-3 minutes and then the incubation mix was aspirated completely from the wells. The wells were washed two times with 250 μL of chilled unlabelled 1 mM taurocholic acid dissolved in HEPES (Gibco 15630080)-buffered (10 mM) HBSS (Gibco 14175079) (pH 7.4). The plates were tapped against a paper towel after every wash to ensure maximum removal of blocking buffer.
100 μL of MicroScint-20 (PerkinElmer 6013621) was added to the wells and kept overnight at room temperature before reading the plates in TopCount NXT™ Microplate Scintillation and Luminescence Counter from PerkinElmer under 3H Test protocol (set at 120 seconds reading time per well).
as §2, §3

Structures are written as SMILES.

Take `CCCC[C@]1(CC)CN(c2ccccc2)c2cc(SC)c(O/C=C/C(=O)O)cc2S(=O)(=O)N1C` (single isomer, unassigned) [Example 90]: the IC50 in assay [1] stood at 49 nM; in assay [2], 1400 nM.

Consider `CCCCC1(CCCC)CN(c2ccc(O)cc2)c2cc(SC)c(O/C=C/C(=O)O)cc2S(=O)(=O)C1` [Example 20, (E)-3-((3,3-dibutyl-5-(4-hydroxyphenyl)-7-(methylthio)-1,1-dioxido-2,3,4,5-tetrahydro-1,5-benzothiazepin-8-yl)oxy)acrylic Acid], for which the IC50 in assay [1] was determined as 1300 nM; in assay [3], 20 nM.

As to `CCCCC1(CCCC)CN(c2ccc(NCc3ccccc3)cc2)c2cc(SC)c(O/C=C/C(=O)O)cc2S(=O)(=O)C1` [Example 22, (E)-3-((5-(4-(benzylamino)phenyl)-3,3-dibutyl-7-(methylthio)-1,1-dioxido-2,3,4,5-tetrahydro-1,5-benzothiazepin-8-yl)oxy)acrylic Acid], the IC50 in assay [1] is 343 nM; in assay [2], 2140 nM.

Take `CCCCC1(CCCC)CN(c2ccccc2)c2cc(SCC)c(O/C=C/C(=O)O)cc2S(=O)(=O)C1` [Example 67, (E)-3-((3,3-dibutyl-7-(ethylthio)-1,1-dioxido-5-phenyl-2,3,4,5-tetrahydro-1,5-benzothiazepin-8-yl)oxy)acrylic Acid]: the IC50 came to 461 nM in assay [1] and 192 nM in assay [3].

In the case of `CCCCC1(CCCC)CN(c2ccccc2)c2cc(Br)c(O/C=C/C(=O)O)cc2S(=O)(=O)N1` [Example 75, (E)-3-((7-bromo-3,3-dibutyl-1,1-dioxido-5-phenyl-2,3,4,5-tetrahydro-1,2,5-benzothiadiazepin-8-yl)oxy)acrylic Acid], the IC50 turned out to be 349 nM in assay [1] and 148 nM in assay [3].

With `CCCCC1(CC)CN(c2ccccc2)c2cc(N(C)C)c(O/C=C/C(=O)O)cc2S(=O)(=O)C1` (stereo not drawn) [Example 80, (E)-3-((3-butyl-7-(dimethylamino)-3-ethyl-1,1-dioxido-5-phenyl-2,3,4,5-tetrahydro-1,5-benzothiazepin-8-yl)oxy)acrylic Acid], the IC50 was found to be 828 nM in assay [1] and 7.5 nM in assay [3].

With `CCCCC1(CCCC)CN(c2ccccc2)c2cc(F)c(O/C=C/C(=O)O)cc2S(=O)(=O)C1` [Example 81, (E)-3-((3,3-dibutyl-7-fluoro-1,1-dioxido-5-phenyl-2,3,4,5-tetrahydro-1,5-benzothiazepin-8-yl)oxy)acrylic Acid], the results for the 50% inhibitory concentration (IC50) in assay [1] and in assay [3] were 210 nM and 771 nM, respectively.

Take `CCCCC1(CCCC)CN(c2ccccc2)c2cc(C#N)c(O/C=C/C(=O)O)cc2S(=O)(=O)C1` [Example 82, (E)-3-((3,3-dibutyl-7-cyano-1,1-dioxido-5-phenyl-2,3,4,5-tetrahydro-1,5-benzothiazepin-8-yl)oxy)acrylic Acid]: the IC50 turned out to be 270 nM in assay [1] and 873 nM in assay [3].

For the molecule `CCCCC1(CCCC)CN(c2ccccc2)c2cc(SC)c(O/C(C)=C/C(=O)O)cc2S(=O)(=O)N1` [Example 83, (E)-3-((3,3-dibutyl-7-(methylthio)-1,1-dioxido-5-phenyl-2,3,4,5-tetrahydro-1,2,5-benzothiadiazepin-8-yl)oxy)but-2-enoic Acid], the figures for the 50% inhibitory concentration (IC50) in assay [1] and in assay [3] were 4920 nM and 18 nM, respectively.

`CCCCC1(CCCC)CN(c2ccc(Br)cc2)c2cc(SC)c(O/C=C(\F)C(=O)O)cc2S(=O)(=O)C1` [Example 94, (Z)-3-((5-(4-bromophenyl)-3,3-dibutyl-7-(methylthio)-1,1-dioxido-2,3,4,5-tetrahydro-1,5-benzothiazepin-8-yl)oxy)-2-fluoroacrylic Acid]: the IC50 in assay [1] was 96 nM; in assay [3] it was 42 nM.

On to `CCCCC1(CCCC)CN(c2ccccc2)c2cc(N(C)C)c(O/C=C(\F)C(=O)O)cc2S(=O)(=O)N1` [Example 97, (Z)-3-((3,3-dibutyl-7-(dimethylamino)-1,1-dioxido-5-phenyl-2,3,4,5-tetrahydro-1,2,5-benzothiadiazepin-8-yl)oxy)-2-fluoroacrylic Acid], for which the IC50 in assay [1] was 341 nM; in assay [3], 9 nM.

For the molecule `CCCCC1(CCCC)CN(c2ccc(C(=O)N(C)C)cc2)c2cc(SC)c(O/C=C(\F)C(=O)O)cc2S(=O)(=O)C1` [Example 104, (Z)-3-((3,3-dibutyl-5-(4-(dimethylcarbamoyl)phenyl)-7-(methylthio)-1,1-dioxido-2,3,4,5-tetrahydro-1,5-benzothiazepin-8-yl)oxy)-2-fluoroacrylic Acid], the IC50 in assay [1] was determined as 290 nM; in assay [3] it was 3330 nM.

Values taken from patent publication US11306064B2, “Benzothia(di)azepine compounds and their use as bile acid modulators” (Albireo AB, priority 2018, dated 2022).
